Data from patent US20240019418A1, “RECEPTORS FOR CYCLIC DINUCLEOTIDES AND METHODS FOR SCREENING AGONISTS OR INHIBITORS THEREOF” (GUANGZHOU WINKEY TECHNOLOGY CO., LTD., priority 2017, published 2024).

Biological target: T1, subtype M of human STING (Homo sapiens, UniProt Q86WV6)
T1 construct: expressed in transfected cells
Experiment: type 1 interferon promoter luciferase reporter in HEK293T cell lines stably expressing subtype M of human STING
Assay type: cell-based
Design: dose or concentration left out as unconfirmed
Conditions: c-di-AMP final concentration in complete medium, 16 hour
Procedure: After two weeks, drug resistance strains occurred.
Incubate for 20 min at room temperature. […] After 24 hours, the supernatants were removed.

T1 sequence (Q86WV6 120-379): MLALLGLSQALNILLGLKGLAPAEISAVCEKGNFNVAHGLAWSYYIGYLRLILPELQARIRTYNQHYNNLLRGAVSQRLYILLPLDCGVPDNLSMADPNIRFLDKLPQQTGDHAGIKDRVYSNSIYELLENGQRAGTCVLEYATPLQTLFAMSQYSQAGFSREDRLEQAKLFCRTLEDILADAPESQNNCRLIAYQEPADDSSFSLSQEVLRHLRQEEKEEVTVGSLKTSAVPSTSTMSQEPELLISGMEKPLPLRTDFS

Nc1ncnc2c1ncn2[C@@H]1O[C@@H]2COP(=O)(O)O[C@H]3[C@@H](O)[C@H](n4cnc5c(N)ncnc54)O[C@@H]3COP(=O)(O)O[C@H]2[C@H]1O [c-di-AMP]
luciferase activity compared with control group in which only transfection was performed: significantly increased
